# Measurements taken from patent publication US20250228762A1, “COSMETIC COMPOSITION COMPRISING LUTEIN AND A POLYSACCHARIDE” (ALGAKTIV, S.L., priority 2022, published 2025).
# Key:
# Type in all cases: cell-based
# [1] = test system: RARalpha; assay: RAR alpha agonist assay (SelectScreen GeneBLAzer, UAS-bla HEK 293T)
# Protocol: (§1) An agonist assay for RAR was performed by SelectScreen® Cell-Based Nuclear Receptor Profiling Service of Life Technologies. In this assay, an engineered cell line (UAS-bla HEK 293T) expressing RARalpha, RARbeta or RAR gamma is used to test the action of lutein. GeneBLAzer® technology, based on mammalian-optimized Beta-lactamase reporter gene (bla) combined with a FRET-enabled substrate, provides the assay with a sensitive detection method. […] The plate is incubated for 16-24 hours at 37° C./5% CO2 in a humidified incubator. 8 μL of 1 μM Substrate Loading Solution is added to each well and the plate is incubated for 2 hours at room temperature. The plate is read on a fluorescence plate reader.
# [2] = test system: RARbeta; assay: RAR beta agonist assay (SelectScreen GeneBLAzer, UAS-bla HEK 293T)
# Protocol: as §1
# [3] = test system: RAR gamma; assay: RAR gamma agonist assay (SelectScreen GeneBLAzer, UAS-bla HEK 293T)
# Protocol: as §1
# [4] = at any concentration below 3.2 μM
"EC50 ([1]; RAR-alpha-UAS-bla HEK 293T, FIG. 2, read-out: EC50 (control agonist, RAR alpha)) [nM]","EC50 ([2]; RAR-beta-UAS-bla HEK 293T, FIG. 3, read-out: EC50 (control agonist, RAR beta)) [nM]","EC50 ([3]; RAR-gamma-UAS-bla HEK 293T, FIG. 4, read-out: EC50 (control agonist, RAR gamma)) [nM]",SMILES,"agonist effect on RAR alpha [1, 4]",concentrations at which a specific RAR-beta partial agonist effect could be measured ([2]; RAR-beta-UAS-bla HEK 293T),RAR-beta activation ([2]; at 3.16 μM) [%],"agonist effect on RAR gamma [3, 4]"
[…],0.46,0.131,"CC1=C(/C=C/C(C)=C/C=C/C(C)=C/C(=O)O)C(C)(C)CCC1 [ATRA, reference compound]",,,,
,,,"CC1=C[C@H](O)CC(C)(C)[C@H]1/C=C/C(C)=C/C=C/C(C)=C/C=C/C=C(C)/C=C/C=C(C)/C=C/C1=C(C)C[C@@H](O)CC1(C)C [Lutein, (1R,4R)-4-{(1E,3E,5E,7E,9E,11E,13E,15E,17E)-18-[(4R)-4-Hydroxy-2,6,6-trimethylcyclohex-1-en-1-yl]-3,7,12,16-tetramethyloctadeca-1,3,5,7,9,11,13,15,17-nonaen-1-yl}-3,5,5-trimethylcyclohex-2-en-1-ol]",No agonist effect,above 100 nm,~40,No agonist effect
